Experiments:
[1] = Antiproliferative activity against human HL60 cells after 72 hrs by MTT assay; type: functional, cell-based; conditions: HL-60, 72 h
[2] = Antiproliferative activity against human HepG2 cells after 72 hrs by MTT assay; type: functional, cell-based; conditions: HepG2, 72 h
[3] = Antiproliferative activity against human MDA-MB-231 cells after 72 hrs by MTT assay; type: functional, cell-based; conditions: MDA-MB-231, 72 h, read-out: IC50
[4] = Antitumor activity against human A549 cells xenografted in BALB/c nude mouse assessed as tumor growth inhibition at 2 mg/kg, ip administered 14 times in 22 days measured on day 4 post dose relative to control; type: functional; conditions: read-out: TGI
[5] = Antitumor activity against human A549 cells xenografted in BALB/c nude mouse assessed as tumor growth inhibition at 2 mg/kg, ip administered 14 times in 22 days measured on day 8 post dose relative to control; type: functional; conditions: read-out: TGI
[6] = Antitumor activity against human A549 cells xenografted in BALB/c nude mouse assessed as tumor growth inhibition at 2 mg/kg, ip administered 14 times in 22 days measured on day 11 post dose relative to control; type: functional; conditions: read-out: TGI
[7] = Antitumor activity against human A549 cells xenografted in BALB/c nude mouse assessed as tumor growth inhibition at 2 mg/kg, ip administered 14 times in 22 days measured on day 15 post dose relative to control; type: functional; conditions: read-out: TGI
[8] = Antitumor activity against human A549 cells xenografted in BALB/c nude mouse assessed as tumor growth inhibition at 2 mg/kg, ip administered 14 times in 22 days measured on day 18 post dose relative to control; type: functional; conditions: read-out: TGI
[9] = Antitumor activity against human A549 cells xenografted in BALB/c nude mouse assessed as tumor growth inhibition at 2 mg/kg, ip administered 14 times in 22 days measured on day 22 post dose relative to control; type: functional; conditions: 528 h, read-out: TGI
[10] = tested on: Mus musculus; experiment: Toxicity in BALB/c nude mouse xenografted with human A549 cells assessed as body weight at 2 mg/kg, ip administered 14 times in 22 days measured on day 1 post dose (reference value: 24.73 +/- 1.33 g); type: organism-based; conditions: in vivo, 528 h
[11] = tested on: Mus musculus; experiment: Toxicity in BALB/c nude mouse xenografted with human A549 cells assessed as body weight at 2 mg/kg, ip administered 14 times in 22 days measured on day 4 post dose (reference value: 24.84 +/- 1.22 g); type: organism-based; conditions: in vivo, 528 h
[12] = tested on: Mus musculus; experiment: Toxicity in BALB/c nude mouse xenografted with human A549 cells assessed as body weight at 2 mg/kg, ip administered 14 times in 22 days measured on day 8 post dose (reference value: 25.19 +/- 1.38 g); type: organism-based; conditions: in vivo, 528 h
[13] = tested on: Mus musculus; experiment: Toxicity in BALB/c nude mouse xenografted with human A549 cells assessed as body weight at 2 mg/kg, ip administered 14 times in 22 days measured on day 11 post dose (reference value: 24.99 +/- 0.97 g); type: organism-based; conditions: in vivo, 528 h
[14] = tested on: Mus musculus; experiment: Toxicity in BALB/c nude mouse xenografted with human A549 cells assessed as body weight at 2 mg/kg, ip administered 14 times in 22 days measured on day 15 post dose (reference value: 25.41 +/- 1.04 g); type: organism-based; conditions: in vivo, 528 h
[15] = tested on: Mus musculus; experiment: Toxicity in BALB/c nude mouse xenografted with human A549 cells assessed as body weight at 2 mg/kg, ip administered 14 times in 22 days measured on day 18 post dose (reference value: 25.66 +/- 1.16 g); type: organism-based; conditions: in vivo, 528 h
[16] = tested on: Mus musculus; experiment: Toxicity in BALB/c nude mouse xenografted with human A549 cells assessed as body weight at 2 mg/kg, ip administered 14 times in 22 days measured on day 22 post dose (reference value: 25.59 +/- 1.16 g); type: organism-based; conditions: in vivo, 528 h
[17] = Antitumor activity against human A549 cells xenografted in BALB/c nude mouse assessed as tumor volume at 2 mg/kg, ip administered 14 times in 22 days measured on day 1 post dose (reference value: 117.71 +/- 7.29 mm3); type: functional
[18] = Antitumor activity against human A549 cells xenografted in BALB/c nude mouse assessed as tumor volume at 2 mg/kg, ip administered 14 times in 22 days measured on day 4 post dose (reference value: 207.73 +/- 56.48 mm3); type: functional
[19] = Antitumor activity against human A549 cells xenografted in BALB/c nude mouse assessed as tumor volume at 2 mg/kg, ip administered 14 times in 22 days measured on day 8 post dose (reference value: 288.71 +/- 54.75 mm3); type: functional
[20] = Antitumor activity against human A549 cells xenografted in BALB/c nude mouse assessed as tumor volume at 2 mg/kg, ip administered 14 times in 22 days measured on day 11 post dose (reference value: 373.93 +/- 59.98 mm3); type: functional
[21] = Antitumor activity against human A549 cells xenografted in BALB/c nude mouse assessed as tumor volume at 2 mg/kg, ip administered 14 times in 22 days measured on day 15 post dose (reference value: 502.27 +/- 69.26 mm3); type: functional
[22] = Antitumor activity against human A549 cells xenografted in BALB/c nude mouse assessed as tumor volume at 2 mg/kg, ip administered 14 times in 22 days measured on day 22 post dose (reference value: 912.28 +/- 140.04 mm3); type: functional
[23] = cells; conditions: Homo sapiens, HCT-116, 72 h
Description: Antiproliferative activity against human HCT116 cells after 72 hrs by MTT assay

[24] = cells; conditions: Homo sapiens, A549, 72 h
Description: Antiproliferative activity against human A549 cells after 72 hrs by MTT assay

CN(Cc1cnc2nc(N)nc(N)c2n1)c1ccc(C(=O)N[C@@H](CCC(=O)O)C(=O)O)cc1 [METHOTREXATE]
IC50 [1]: 1090 nM | IC50 [2]: 410 nM | IC50 [3]: 9490 nM | inhibition in vivo at 2 mg/kg [4]: 24.6% | inhibition in vivo at 2 mg/kg [5]: 32.7% | inhibition in vivo at 2 mg/kg [6]: 29.2% | inhibition in vivo at 2 mg/kg [7]: 45% | inhibition in vivo at 2 mg/kg [8]: 50.6% | inhibition in vivo at 2 mg/kg [9]: 50.8% | Activity [10]: 25.28 g | Activity [11]: 25.47 g | Activity [12]: 24.88 g | Activity [13]: 23.98 g | Activity [14]: 21.85 g | Activity [15]: 21.62 g | Activity [16]: 21.4 g | Activity [17]: 115.14 mm3 | Activity [18]: 153.09 mm3 | Activity [19]: 189.83 mm3 | Activity [20]: 223.6 mm3 | Activity [21]: 271.71 mm3 | Activity [22]: 440.75 mm3 | IC50 [23]: 750 nM | IC50 [24]: 250 nM

From ChEMBL document CHEMBL3877300, “Design, synthesis, docking studies and biological evaluation of novel dihydro-1,3,5-triazines as human DHFR inhibitors” (Eur J Med Chem, 2017)
